This note sets out measurements from patent US9464064B2, “HCV helicase inhibitors and methods of use thereof” (University of Kansas, priority 2011, dated 2016).

Data set [1] deals with T1, NS3h_DV2 (Dengue virus type 2, UniProt P29990).
T1 construct: made in house
Description: RNA-stimulated ATP hydrolysis, pH 7.5, Dengue. Format: biochemical. The following applies: 10 μM poly(U) RNA, read-out: ATPase w/RNA NS3h_DV2 IC50 (μM) ± SD. The protocol:
To compare the effect of compounds on HCV NS3h_1b (con1) to NS3h_DV2, reactions were performed with 2 nM of either enzyme in 25 mM Tris pH 7.5, 1.25 mM MgCl2, 1.0 mM ATP, 10% DMSO, 5 μg/ml BSA, 0.01% (v/v) TWEEN 20, 0.05 mM DTT, and 10 μM poly(U) RNA at 37° C.
To further profile compound specificity, it was determined whether the compounds would inhibit homologous NS3h expressed by the Dengue virus (NS3h_DV2). […] The same assays were also repeated with HCV NS3h_1b(con1) for comparison.

Data set [2] deals with T2, NS3h_2a (Hepatitis C virus genotype 2a, UniProt Q99IB8).
T2 construct: truncated C-terminally His-tagged NS3 proteins lacking the N-terminal protease, called NS3h; His-tag (C); made in house
T2 sequence (Q99IB8 1196-1661): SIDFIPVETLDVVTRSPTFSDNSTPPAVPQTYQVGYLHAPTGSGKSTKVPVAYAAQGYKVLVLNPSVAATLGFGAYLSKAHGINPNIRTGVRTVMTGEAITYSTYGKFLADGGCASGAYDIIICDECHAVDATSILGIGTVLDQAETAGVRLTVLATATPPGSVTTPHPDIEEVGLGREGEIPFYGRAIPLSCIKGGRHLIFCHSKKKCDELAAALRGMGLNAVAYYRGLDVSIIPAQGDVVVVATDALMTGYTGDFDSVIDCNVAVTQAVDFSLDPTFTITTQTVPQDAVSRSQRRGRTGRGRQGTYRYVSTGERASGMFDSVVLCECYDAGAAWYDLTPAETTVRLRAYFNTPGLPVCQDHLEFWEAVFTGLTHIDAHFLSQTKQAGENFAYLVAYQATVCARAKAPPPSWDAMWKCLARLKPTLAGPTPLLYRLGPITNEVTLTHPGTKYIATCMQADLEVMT
In words: RNA helicase assay (three-stranded RNA substrate). The data set is classed as biochemical, hepatitis C virus genotype 2a(JFH1). Here is the method:
To act as antivirals in cells, it is also important for an HCV helicase inhibitor to inhibit the activity of the NS3h on RNA. […] As with protein specificity, no differences were uncovered regarding substrate specificity for any of the compounds tested. In other words, none of the compounds preferred to act either on DNA or RNA substrates.

A short description of data set [3]: Aqueous solubility (direct UV kinetic). Format: physicochemical. The following applies: kinetic from dmso stock. The protocol: Solubility analysis was performed using a direct UV kinetic solubility method in a 96-well format. All liquid dispense and transfer steps were performed with the FREEDOM EVO automated liquid handler (Tecan, US). Solubility measurements were performed in an aqueous buffer solution (PRISMA HT, pION Inc.) at pH 5.0, 6.2 and 7.4, in duplicate. Solubility measurements were also performed in 1×PBS pH 7.4, and in MOPS buffer pH 6.5. Samples were incubated at room temperature for a minimum of […] to achieve equilibrium, then filtered to remove any precipitate formed. The concentration of the compounds was measured by UV absorbance (250-498 nm) using the […] M200 (Tecan, US) and compared to the spectra of the precipitation-free reference solutions. Spectroscopically pure 1-Propanol (Sigma) was used as a cosolvent to suppress precipitation in the reference solutions. The solubility of each compound was determined using pSOL Evolution Plus software v3.2 (pION Inc) and was expressed as the concentration (μg/mL) of a solute in a saturated solution. Diclofenac Na (highly soluble) and Dipyridamole (poorly to moderately soluble) were used as standards. Standards and test compound stocks were made in 100% DMSO. […]

Data set [4] has as its target T3, NS3h_2a(JFH1) (Hepatitis C virus genotype 2a, UniProt Q99IB8).
T3 construct: truncated C-terminally His-tagged NS3 proteins lacking the N-terminal protease, called NS3h; His-tag (C); made in house
In words: NS3 intrinsic protein fluorescence titration. Format: binding, hepatitis C virus genotype 2a(JFH1). The following applies: corrected for inner filter effects. Here is the method:
Compound effects on NS3 intrinsic protein fluorescence were determined by adding aliquots of each compound (1 μl of a 1 mM solution in DMSO) sequentially to 50, 100, or 200 nM of NS3h_2a(JFH1), or 100 nM scNS4A-NS3 dissolved in 2 ml of 25 mM MOPS pH 7, 1.25 mM MgCl2, 0.01% (v/v) TWEEN 20 and 0.3 mM DTT. The titrations were performed in a stirred, temperature-controlled 1 cm cuvette at 23° C. in a Cary Eclipse Fluorescence Spectrophotometer (Agilent Technologies). Intrinsic protein fluorescence was recorded by exciting the sample at 280 nm and reading emission at 340 nm. Excitation and emission slit widths were set to 5 and 10 nm, respectively. All raw fluorescence data were corrected for sample dilution and inner filter effects using Equation 5: Fc=Fobs(V0+Vi)/V0*10^(Aex+Aem/2) (Equation 5) where Fc is corrected fluorescence, Fobs is observed fluorescence, V0 is initial sample volume, Vi is total volume of titrant added, Aex is the absorbance of the solution at the excitation wavelength (280 nm), and Aem is the absorbance of the solution at the emission wavelength (340 nm). Absorbance was calculated at each point in the titrations from extinction coefficients for each compound in titration buffer, which were calculated at 280 nm and 340 nm using four different compound concentrations. […] Fc=F0−(ΔFmax*[…]/(Kd^n+(C)^n)) (Equation 6) In equation 6, […], F0 is fluorescence in the absence of compound, ΔFmax is the maximum change in fluorescence, n is the Hill coefficient, and C is compound concentration.
To examine the direct interaction of the compounds with NS3, the effect of a select few compound on NS3 intrinsic protein fluorescence was analyzed. This technique has been widely used to monitor the interaction of NS3 with its nucleic acid ligands (Lam, et al. (2004) Nucleic Acids Res. 32:4060-4070; Levin & Patel (2002) J. Biol. Chem. 277:29377-29385; Preugschat, et al. (1996) J. Biol. Chem. 271:24449-24457) and other small molecules (Belon, et al. (2010) supra). […] Of note is the fact that, unlike compounds that simply compete for the nucleic acid binding site (e.g., (BIP)2B; Belon, et al. (2010) supra), the primuline derivatives bound NS3h cooperatively as evident from their sigmoid binding isotherms and Hill coefficients greater than one (Equation 6). When compounds were tested against scNS4A-NS3, binding again was detected and apparent affinity for the full-length complex was about 5 times higher than it was for NS3h.

Setting [5] is: aqueous with cosolvent or surfactant or cyclodextrin, mock assay matrix (MOPS, TWEEN 20, 5% DMSO) at pH 6.5, read-out: solubility.

Like-named read-outs stand apart in the source and are kept apart here.

T1 sequence (P29990 1646-2093): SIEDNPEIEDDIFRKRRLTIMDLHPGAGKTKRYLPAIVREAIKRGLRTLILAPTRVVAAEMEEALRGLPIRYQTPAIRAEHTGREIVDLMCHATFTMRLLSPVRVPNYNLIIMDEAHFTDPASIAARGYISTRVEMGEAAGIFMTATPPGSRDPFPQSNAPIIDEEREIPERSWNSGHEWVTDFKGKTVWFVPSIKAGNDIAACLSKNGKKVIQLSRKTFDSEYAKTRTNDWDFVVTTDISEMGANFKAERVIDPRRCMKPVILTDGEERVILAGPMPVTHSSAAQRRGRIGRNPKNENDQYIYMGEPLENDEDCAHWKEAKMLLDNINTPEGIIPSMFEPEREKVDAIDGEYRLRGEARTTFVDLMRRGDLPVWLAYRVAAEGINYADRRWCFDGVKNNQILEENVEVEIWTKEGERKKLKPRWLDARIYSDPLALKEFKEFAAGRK
T3 sequence (Q99IB8 1196-1661): as the sequence (Q99IB8 1196-1661) above

Regarding `Cc1ccc2nc(-c3ccc4nc(-c5ccc(NC(=O)c6ccc(N)cc6)cc5)sc4c3)sc2c1S(=O)(=O)O` [Compound 6, 2′-(4-(4-aminobenzamido)phenyl)-6-methyl-[2,6′-bibenzo[d]thiazole]-7-sulfonic acid], the IC50 was determined as 12 ± 4 µM in data set [1] and 7 ± 3 µM in data set [2].
With `Cc1ccc2nc(-c3ccc4nc(-c5ccc(NC(=O)c6ccc(F)cc6)cc5)sc4c3)sc2c1S(=O)(=O)O.N` [Compound 7, 2′-(4-(4-fluorobenzamido)phenyl)-6-methyl-[2, bibenzo[d]thiazole]-7-sulfonic acid], the IC50 in data set [1] turned out to be 6 ± 1 µM; in data set [2], 4 ± 2 µM. In data set [3] (setting [5]), the solubility (commonly how much of the substance goes into solution per volume) amounted to 129 µM.
With `Cc1ccc2nc(-c3ccc4nc(-c5ccc(NC(=O)c6ccc(C(F)(F)F)cc6)cc5)sc4c3)sc2c1S(=O)(=O)O` [Compound 12, 6-methyl-2′-(4-(4-(trifluoromethyl)benzamido)phenyl)-[2,6′-bibenzo[d]thiazole]-7-sulfonic acid], the IC50 came to 2 ± 0.5 µM in data set [1] and 3 ± 1 µM in data set [2]. Moreover, the “interaction with NS3 (intrinsic protein fluorescence)” value (“interaction with NS3” for short) in data set [4] is given as “clear interaction”.
Take `Cc1ccc2nc(-c3ccc4nc(-c5ccc(NC(=O)c6ccc(C(C)(C)C)cc6)cc5)sc4c3)sc2c1S(=O)(=O)O` [Compound 13, 2′-(4-(4-(tert-butyl)benzamido)phenyl)-6-methyl-[2,6′-bibenzo[d]thiazole]-7-sulfonic acid]: the IC50 in data set [1] turned out to be 8 ± 1 µM; in data set [2], 9 ± 9 µM.
With `Cc1ccc2nc(-c3ccc4nc(-c5ccc(NC(=O)c6ccc(Br)cc6)cc5)sc4c3)sc2c1S(=O)(=O)O` [Compound 15, 2′-(4-(4-bromobenzamido)phenyl)-6-methyl-[2,6′-bibenzo[d]thiazole]-7-sulfonic acid], the IC50 in data set [1] was 3 ± 0.8 µM; in data set [2], 4 ± 2 µM.
For the molecule `Cc1ccc2nc(-c3ccc4nc(-c5ccc(NC(=O)c6cccc(Cl)c6)cc5)sc4c3)sc2c1S(=O)(=O)O` [Compound 17, 2′-(4-(3-chlorobenzamido)phenyl)-6-methyl-[2,6′-bibenzo[d]thiazole]-7-sulfonic acid], the IC50 in data set [1] was 4 ± 0.6 µM; in data set [2], 6 ± 3.1 µM. Moreover, in data set [4], the “interaction with NS3” value is on record as “clear interaction”. Besides, the solubility in data set [3] (1×PBS, pH 7.4, aqueous buffer, read-out: Aqueous Solubility, PBS) is 0.00012 mg/mL; in data set [3] (PRISMA HT aqueous buffer, aqueous buffer, pH 5.0, read-out: Aqueous Solubility, Prisma HT buffer), 0.0367 mg/mL; in data set [3] (PRISMA HT aqueous buffer, pH 6.2, aqueous buffer, read-out: Aqueous Solubility, Prisma HT buffer) it was over 0.06 mg/mL; in data set [3] (PRISMA HT aqueous buffer, pH 7.4, aqueous buffer, read-out: Aqueous Solubility, Prisma HT buffer), over 0.06 mg/mL; in data set [3] (setting [5]), 29.2 µM; in data set [3] (mock assay matrix with TWEEN 20, 5% DMSO, pH 6.5, aqueous with cosolvent or surfactant or cyclodextrin, read-out: Aqueous Solubility, Assay Matrix), 0.0178 mg/mL.
In the case of `Cc1ccc2nc(-c3ccc4nc(-c5ccc(NC(=O)c6ccc(Cl)c(Cl)c6)cc5)sc4c3)sc2c1S(=O)(=O)O` [Compound 18, 2′-(4-(3,4-dichlorobenzamido)phenyl)-6-methyl-[2,6′-bibenzo[d]thiazole]-7-sulfonic acid], the IC50 in data set [1] was 4 ± 1 µM; in data set [2] it was 4 ± 2 µM. In addition, in data set [3] (setting [5]), the solubility amounted to 2.6 µM.
As to `Cc1ccc2nc(-c3ccc4nc(-c5ccc(NC(=O)c6cc(C(F)(F)F)cc(C(F)(F)F)c6)cc5)sc4c3)sc2c1S(=O)(=O)O` [Compound 24, 2′-(4-(3,5-bis(trifluoromethyl)benzamido)phenyl)-6-methyl-[2,6′-bibenzo[d]thiazole]-7-sulfonic acid], the IC50 in data set [1] was 11 ± 2 µM; in data set [2], 14 ± 13 µM. Also, the “interaction with NS3” value in data set [4] was “clear interaction”. In addition, the solubility in data set [3] (setting [5]) is 180 µM.
`Cc1ccc2nc(-c3ccc4nc(-c5ccc(NC(=O)c6cc(C(F)(F)F)ccc6F)cc5)sc4c3)sc2c1S(=O)(=O)O` [Compound 25, 2′-(4-(2-fluoro-5-(trifluoromethyl)benzamido)phenyl)-6-methyl-[2,6′-bibenzo[d]thiazole]-7-sulfonic acid]: the IC50 in data set [1] was 7 ± 0.1 µM; in data set [2] it was 10 ± 3 µM.
In the case of `Cc1ccc2nc(-c3ccc4nc(-c5ccc(NC(=O)c6cccnc6)cc5)sc4c3)sc2c1S(=O)(=O)O` [Compound 31, 6-methyl-2′-(4-(nicotinamido)phenyl)-[2,6′-bibenzo[d]thiazole]-7-sulfonic acid], the solubility in data set [3] (aqueous buffer, MOPS buffer (25 mM MOPS, 1.25 mM MgCl2, 2% DMSO) at pH 6.5, read-out: solubility) is over 100 µM.
`Cc1ccc2nc(-c3ccc4nc(-c5ccc(NC(=O)c6ccc7ccccc7c6)cc5)sc4c3)sc2c1S(=O)(=O)O` [Compound 33, 2′-(4-(2-naphthamido)phenyl)-6-methyl-[2,6′-bibenzo[d]thiazole]-7-sulfonic acid]: the IC50 in data set [1] came to 3 ± 1 µM; in data set [2] it was 3 ± 2 µM. Further, in data set [4], the “interaction with NS3” value is “clear interaction”. Further, the solubility in data set [3] (setting [5]) is 3.7 µM.
With `Cc1ccc2nc(-c3ccc4nc(-c5ccc(NC(=O)c6ccc7nc(-c8ccc(N)cc8)sc7c6)cc5)sc4c3)sc2c1S(=O)(=O)O` [Compound 35, 2′-(4-(2-(4-aminophenyl)benzo[d]thiazole-6-carboxamido)phenyl)-6-methyl-[2,6′-bibenzo[d]thiazole]-7-sulfonic acid], in data set [2], the IC50 is 6 ± 5.4 µM.
For `Cc1ccc2nc(-c3ccc4nc(-c5ccc(N)cc5)sc4c3)sc2c1S(=O)(=O)O` [Compound P2a, 2′-(4-aminophenyl)-6-methyl-[2,6′-bibenzo[d]thiazole]-7-sulfonic acid], the IC50 in data set [1] worked out at 32 ± 17 µM; in data set [2], 32 ± 14 µM.
Regarding `Cc1ccc2nc(-c3ccc4nc(-c5ccc6nc(-c7ccc8nc(-c9ccc(N)cc9)sc8c7)sc6c5)sc4c3)sc2c1S(=O)(=O)O` [Compound P4, 2′″-(4-aminophenyl)-6-methyl-[2,6′:2″,6′″-quaterbenzo[d]thiazole]-7-sulfonic acid], the IC50 was determined as 0.94 ± 0.7 µM in data set [1] and 3 ± 1.3 µM in data set [2].
